Data from patent US9102621B2, “Acyl sulfonamide compounds” (Pfizer Limited, priority 2010, dated 2015).
Where a name gives a salt, the structure may show the parent alone.

target: T1, Nav1.7 (or SCN9A) channel (Homo sapiens, UniProt Q15858); experiment: Nav1.7 (hSCN9A) channel block, PatchXpress whole-cell electrophysiology; assay type: cell-based; settings: PatchXpress platform; HEK cells stably transfected with hSCN9A; estimated IC-50 calculated from single point % inhibition at V1/2; read-out: Nav1.7 EIC50
T1 construct: expressed in transfected cells
T1 sequence (Q15858 whole entry): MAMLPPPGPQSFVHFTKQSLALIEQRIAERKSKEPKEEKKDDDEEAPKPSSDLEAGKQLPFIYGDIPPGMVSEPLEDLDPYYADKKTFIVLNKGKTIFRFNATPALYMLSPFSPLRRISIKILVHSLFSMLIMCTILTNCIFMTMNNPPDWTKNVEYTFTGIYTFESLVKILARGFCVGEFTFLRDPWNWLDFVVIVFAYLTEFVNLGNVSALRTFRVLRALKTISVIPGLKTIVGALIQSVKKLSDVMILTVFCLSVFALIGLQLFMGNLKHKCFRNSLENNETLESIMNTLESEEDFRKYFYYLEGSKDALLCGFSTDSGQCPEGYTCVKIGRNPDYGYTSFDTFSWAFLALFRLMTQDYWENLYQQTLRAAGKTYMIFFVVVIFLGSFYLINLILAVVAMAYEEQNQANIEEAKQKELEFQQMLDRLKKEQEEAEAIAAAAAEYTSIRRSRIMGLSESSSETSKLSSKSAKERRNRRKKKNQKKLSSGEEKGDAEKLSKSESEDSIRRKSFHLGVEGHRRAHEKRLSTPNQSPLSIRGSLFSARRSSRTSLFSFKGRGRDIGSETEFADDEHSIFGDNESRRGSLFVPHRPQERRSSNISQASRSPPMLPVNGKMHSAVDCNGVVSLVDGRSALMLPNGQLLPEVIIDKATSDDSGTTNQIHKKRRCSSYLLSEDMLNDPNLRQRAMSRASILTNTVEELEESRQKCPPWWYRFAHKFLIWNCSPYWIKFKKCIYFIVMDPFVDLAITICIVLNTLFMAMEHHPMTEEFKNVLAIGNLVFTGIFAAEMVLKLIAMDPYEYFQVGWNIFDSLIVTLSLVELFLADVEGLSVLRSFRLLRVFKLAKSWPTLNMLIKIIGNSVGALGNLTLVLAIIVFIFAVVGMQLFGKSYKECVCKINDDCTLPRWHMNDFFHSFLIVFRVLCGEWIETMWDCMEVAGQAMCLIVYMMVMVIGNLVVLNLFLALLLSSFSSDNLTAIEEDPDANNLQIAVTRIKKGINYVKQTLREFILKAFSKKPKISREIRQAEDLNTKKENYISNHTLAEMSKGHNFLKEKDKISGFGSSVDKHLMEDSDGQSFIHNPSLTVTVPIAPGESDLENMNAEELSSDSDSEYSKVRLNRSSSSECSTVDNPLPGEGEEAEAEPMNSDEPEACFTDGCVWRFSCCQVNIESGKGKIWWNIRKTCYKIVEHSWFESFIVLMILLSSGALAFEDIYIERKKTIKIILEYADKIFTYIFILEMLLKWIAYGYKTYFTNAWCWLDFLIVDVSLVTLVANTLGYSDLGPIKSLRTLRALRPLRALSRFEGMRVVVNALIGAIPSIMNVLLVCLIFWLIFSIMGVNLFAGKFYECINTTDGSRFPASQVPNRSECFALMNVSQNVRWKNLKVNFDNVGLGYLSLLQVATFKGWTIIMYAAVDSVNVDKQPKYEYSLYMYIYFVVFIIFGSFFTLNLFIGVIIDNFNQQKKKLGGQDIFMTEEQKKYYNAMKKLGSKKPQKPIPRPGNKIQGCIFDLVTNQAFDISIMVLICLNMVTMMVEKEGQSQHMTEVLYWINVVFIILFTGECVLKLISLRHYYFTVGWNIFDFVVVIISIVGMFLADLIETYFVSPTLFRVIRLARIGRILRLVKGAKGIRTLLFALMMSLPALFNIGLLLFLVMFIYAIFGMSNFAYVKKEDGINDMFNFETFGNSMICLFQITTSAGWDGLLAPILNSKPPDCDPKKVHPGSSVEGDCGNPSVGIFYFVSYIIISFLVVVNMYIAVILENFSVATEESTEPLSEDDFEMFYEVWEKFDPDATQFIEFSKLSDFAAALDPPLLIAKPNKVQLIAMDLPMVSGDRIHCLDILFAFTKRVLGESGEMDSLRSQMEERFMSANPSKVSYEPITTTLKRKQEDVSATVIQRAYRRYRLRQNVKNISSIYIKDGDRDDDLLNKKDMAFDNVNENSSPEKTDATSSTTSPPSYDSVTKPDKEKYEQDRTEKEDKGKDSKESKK
Description: The ability of the compounds of formula (I) to block the Nav1.7 (or SCN9A) channel were measured using the assay described below.
Human Embryonic Kidney (HEK) cells were transfected with an hSCN9A construct using lipofectamine reagent (Invitrogen), using standard techniques. Cells stably expressing the hSCN9A constructs were identified by their resistance to G-418 (400 μg/ml). Clones were screened for expression using the whole-cell voltage-clamp technique.
HEK cells stably transfected with hSCN9A were maintained in DMEM medium supplemented with 10% heat-inactivated fetal bovine serum and 400 μg/ml G-418 in an incubator at 37° C. with a humidified atmosphere of 10% CO2. For HTS, cells were harvested from flasks by trypsinization and replated in an appropriate multi-well plate (typically 96 or 384 wells/plate) such that confluence would be achieved within 24 hours of plating. For electrophysiological studies, cells were removed from the culture flask by brief trypsinization and re-plated at low density onto glass cover slips. Cells were typically used for electrophysiological experiments within 24 to 72 hours after plating.
Cover slips containing HEK cells expressing hSCN9A were placed in a bath on the stage of an inverted microscope and perfused (approximately 1 ml/minutes) with extracellular solution of the following composition: 138 mM NaCl, 2 mM CaCl2, 5.4 mM KCl, 1 mM MgCl2, 10 mM glucose, and 10 mM HEPES, pH 7.4, with NaOH. […] The osmolarity of the extracellular and intracellular solutions was 300 mOsm/kg and 295 mOsm/kg, respectively. All recordings were made at room temperature (22-24° C.) using AXOPATCH 200B amplifiers and PCLAMP software (Axon Instruments, Burlingame, Calif.).
hSCN9A currents in HEK cells were measured using the whole-cell configuration of the patch-clamp technique (Hamill et al., 1981). Uncompensated series resistance was typically 2 to 5 mega ohms and >85% series resistance compensation was routinely achieved. As a result, voltage errors were negligible and no correction was applied. Current records were acquired at 20 to 50 KHz and filtered at 5 to 10 KHz.
HEK cells stably transfected with hSCN9A were viewed under Hoffman contrast optics and placed in front of an array of flow pipes emitting either control or compound-containing extracellular solutions. All compounds were dissolved in dimethyl sulfoxide to make 10 mM stock solutions, which were then diluted into extracellular solution to attain the final concentrations desired. […] The voltage-dependence of inactivation was determined by applying a series of depolarizing prepulses (8 sec long in 10 mV increments) from a negative holding potential. The voltage was then immediately stepped to 0 mV to assess the magnitude of the sodium current. Currents elicited at 0 mV were plotted as a function of prepulse potential to allow estimation of the voltage at which 50% of the channels were inactivated (midpoint of inactivation or V1/2). Compounds were tested for their ability to inhibit hSCN9A sodium channels by activating the channel with a 20 msec voltage step to 0 mV following an 8 second conditioning prepulse to the empirically determined V1/2. Compound effect (% inhibition) was determined by difference in current amplitude before and after application of test compounds. […] Inhibition values <20% and >80% were excluded from the calculation.
Electrophysiological assays were conducted with PatchXpress 7000 hardware and associated software (Molecular Devices Corp). All assay buffers and solutions were identical to those used in conventional whole-cell voltage clamp experiments described above. hSCN9A cells were grown as above to 50%-80% confluency and harvested by trypsinization. Trypsinized cells were washed and resuspended in extracellular buffer at a concentration of 1×10^6 cells/ml. The onboard liquid handling facility of the PatchXpress was used for dispensing cells and application of test compounds. […]

SMILES	IC50
[2H]C(C)(C)Oc1ncc(OCc2cc(F)c(C(=O)NS(C)(=O)=O)cc2F)cc1Cl [Example 24, 4-{[(5-Chloro-6-d1-isopropoxypyridin-3-yl)oxy]methyl}-2,5-difluoro-N-(methylsulfonyl)benzamide]	140 nM
CS(=O)(=O)NC(=O)c1cc(Cl)c(COc2cnc(OCC(F)(F)F)c(Cl)c2)cc1F [Example 43, 5-Chloro-4-({[5-chloro-6-(2,2,2-trifluoroethoxy)pyridin-3-yl]oxy}methyl)-2-fluoro-N-(methylsulfonyl)benzamide]	42.5 nM
CS(=O)(=O)NC(=O)c1cc(F)c(COc2ccc(C(F)(F)F)nc2)cc1F [Example 26, 2,5-Difluoro-N-(methylsulfonyl)-4-({[6-(trifluoromethyl)pyridin-3-yl]oxy}methyl)benzamide]	4980 nM
CC(Oc1ncc(OCc2cc(F)c(C(=O)NS(C)(=O)=O)cc2Cl)cc1Cl)C(F)(F)F (stereo not shown) [Example 31, 5-Chloro-4-((5-chloro-6-(1,1,1-trifluoropropan-2-yloxy)pyridin-3-yloxy)methyl)-2-fluoro-N-(methylsulfonyl)benzamide]	< 100 nM
CS(=O)(=O)NC(=O)c1cc(Cl)c(COc2cnc(C3CC3)c(OC(F)F)c2)cc1F [Example 59, 5-Chloro-4-({[6-cyclopropyl-5-(difluoromethoxy)pyridin-3-yl]oxy}methyl)-2-fluoro-N-(methylsulfonyl)benzamide diethylamine salt]	356 nM
CS(=O)(=O)NC(=O)c1cc(Cl)c(COc2cnc(OCC(F)(F)C(F)F)c(Cl)c2)cc1F [Example 37, 5-Chloro-4-({[5-chloro-6-(2,2,3,3-tetrafluoropropoxy)pyridin-3-yl]oxy}methyl)-2-fluoro-N-(methylsulfonyl)benzamide]	9.1 nM
CC(C)COc1ncc(OCc2ccc(C(=O)NS(C)(=O)=O)cc2)cc1Cl [Example 3, 4-{[(5-Chloro-6-isobutoxypyridin-3-yl)oxy]methyl}-N-(methylsulfonyl)benzamide diethylamine salt]	324 nM
CC(C)(F)COc1ncc(OCc2cc(F)c(C(=O)NS(C)(=O)=O)cc2F)cc1Cl [Example 13, 4-((5-Chloro-6-(2-fluoro-2-methylpropoxy)pyridin-3-yloxy)methyl)-2,5-difluoro-N-(methylsulfonyl)benzamide]	81.4 nM
CC(C)(Oc1ncc(OCc2cc(F)c(C(=O)NS(C)(=O)=O)cc2F)cc1Cl)C(F)(F)F [Example 49, 4-({[5-Chloro-6-(2,2,2-trifluoro-1,1-dimethylethoxy)pyridin-3-yl]oxy}methyl)-2,5-difluoro-N-(methylsulfonyl)benzamide]	9.7 nM
CS(=O)(=O)NC(=O)c1ccc(COc2cc(C(F)(F)F)c(Cl)cn2)cc1 [Example 62, 4-({[5-Chloro-4-(trifluoromethyl)pyridin-2-yl]oxy}methyl)-N-(methylsulfonyl)benzamide]	3410 nM
CC(C)Oc1ncc(OCc2cc(F)c(C(=O)NS(C)(=O)=O)cc2Cl)cn1 [Example 58, 5-Chloro-2-fluoro-4-{[(2-isopropoxypyrimidin-5-yl)oxy]methyl}-N-(methylsulfonyl)benzamide]	6850 nM
CS(=O)(=O)NC(=O)c1cc(F)c(COc2ccc(C(F)(F)F)cn2)cc1F [Example 56, 2,5-Difluoro-N-(methylsulfonyl)-4-({[5-(trifluoromethyl)pyridin-2-yl]oxy}methyl)benzamide]	6720 nM
CS(=O)(=O)NC(=O)c1cc(F)c(OCc2ccc(Cl)cn2)cc1F [Example 64, 4-[(5-Chloropyridin-2-yl)methoxy]-2,5-difluoro-N-(methylsulfonyl)benzamide diethylamine salt]	> 1000 nM
CS(=O)(=O)NC(=O)c1cc(F)c(COc2cc(C(F)(F)F)nc(C(F)(F)F)c2)cc1F [Example 61, 4-({[2,6-bis(trifluoromethyl)pyridin-4-yl]oxy}methyl)-2,5-difluoro-N-(methylsulfonyl)benzamide]	1840 nM
COc1ncc(OCc2cc(F)c(C(=O)NS(=O)(=O)C3CC3)cc2F)cc1Cl [Example 4, 4-((5-Chloro-6-methoxypyridin-3-yloxy)methyl)-N-(cyclopropylsulfonyl)-2,5-difluorobenzamide]	2600 nM
CS(=O)(=O)NC(=O)c1cc(Cl)c(COc2cnc(OC(C(F)(F)F)C(F)(F)F)c(Cl)c2)cc1F [Example 30, 5-Chloro-4-((5-chloro-6-(1,1,1,3,3,3-hexafluoropropan-2-yloxy)pyridin-3-yloxy)methyl)-2-fluoro-N-(methylsulfonyl)benzamide]	< 100 nM
CS(=O)(=O)NC(=O)c1cc(F)c(COc2cc(C(F)(F)F)c(Cl)cn2)cc1F [Example 55, 4-({[5-Chloro-4-(trifluoromethyl)pyridin-2-yl]oxy}methyl)-2,5-difluoro-N-(methylsulfonyl)benzamide]	> 1000 nM
CS(=O)(=O)NC(=O)c1cc(F)c(COc2cnc(OCC(F)(F)F)c(Cl)c2)cc1F [Example 16, 4-((5-Chloro-6-(2,2,2-trifluoroethoxy)pyridin-3-yloxy)methyl)-2,5-difluoro-N-(methylsulfonyl)benzamide]	150 nM
[2H]C([2H])([2H])C([2H])(Oc1ncc(OCc2cc(F)c(C(=O)NS(C)(=O)=O)cc2F)cc1Cl)C([2H])([2H])[2H] [Example 21, 4-{[(5-Chloro-6-d7-isopropoxypyridin-3-yl)oxy]methyl}-2,5-difluoro-N-(methylsulfonyl)benzamide]	161 nM
CS(=O)(=O)NC(=O)c1ccc(COc2ccc3ccncc3c2)cc1 [Example 53]	> 3000 nM
CS(=O)(=O)NC(=O)c1ccc(OCc2ccc(C(F)(F)F)nc2)cc1 [Example 9, N-(methylsulfonyl)-4-{[6-(trifluoromethyl)pyridin-3-yl]methoxy}benzamide formate salt]	> 1000 nM
COc1ncc(OCc2ccc(C(=O)NS(C)(=O)=O)cc2)cc1Cl [Example 6, 4-((5-Chloro-6-methoxypyridin-3-yloxy)methyl)-N-(methylsulfonyl)benzamide]	3580 nM
CS(=O)(=O)NC(=O)c1cc(F)c(COc2cncc(Cl)c2)cc1F [Example 20, 4-{[(5-Chloropyridin-3-yl)oxy]methyl}-2,5-difluoro-N-(methylsulfonyl)benzamide]	> 3000 nM
COc1ncc(OCc2cc(F)c(C(=O)NS(C)(=O)=O)cc2Cl)cc1Cl [Example 33, 5-Chloro-4-{[(5-chloro-6-methoxypyridin-3-yl)oxy]methyl}-2-fluoro-N-(methylsulfonyl)benzamide]	380 nM
CC(C)(F)COc1ncc(OCc2cc(F)c(C(=O)NS(C)(=O)=O)cc2Cl)cc1Cl [Example 45, 5-Chloro-4-({[5-chloro-6-(2-fluoro-2-methylpropoxy)pyridin-3-yl]oxy}methyl)-2-fluoro-N-(methylsulfonyl)benzamide]	58.2 nM
COc1cc(C(=O)NS(C)(=O)=O)ccc1COc1cnc(OCC(C)C)c(Cl)c1 [Example 5, 4-((5-Chloro-6-isobutoxypyridin-3-yloxy)methyl)-3-methoxy-N-(methylsulfonyl)benzamide diethylamine salt]	281 nM
CC(C)C(F)(F)c1ncc(OCc2cc(F)c(C(=O)NS(C)(=O)=O)cc2Cl)cc1Cl [Example 36, 5-Chloro-4-({[5-chloro-6-(1,1-difluoro-2-methylpropyl)pyridin-3-yl]oxy}methyl)-2-fluoro-N-(methylsulfonyl)benzamide]	52.7 nM
COc1ncc(OCc2cc(F)c(C(=O)NS(C)(=O)=O)cc2F)cc1Cl [Example 28, 4-((5-Chloro-6-methoxypyridin-3-yloxy)methyl)-2,5-difluoro-N-(methylsulfonyl)benzamide]	7440 nM
